# From US20130178441A1, “Methods for Extending Progression-Free Survival using 10-Propargyl-10-Deazaaminopterin” (ALLOS THERAPEUTICS, INC., priority 2010, published 2013)
# Where “and” joins values, the source holds several entries; their conditions need not be identical. Identical values can stand only once. Entries after “also recorded” stand apart in the source; their conditions may differ. Marks after values point to notes of the source that are not given here.
# System: relapsed/refractory PTCL
# Test: PROPEL subset analysis: second-line pralatrexate after first-line CHOP only (N=15) vs other patients (n=94)
# Type: in vivo, human
# Description: The most common therapy for first-line treatment of PTCL is the multi-agent combination cyclophosphamide/doxorubicin/vincristine prednisone (CHOP). However, most patients progress within 6-12 months, and there is no standard of care for second-line treatment of these patients. Thus optimal second-line approaches are needed and agents based on a unique mechanism of action warrant study. This analysis was conducted to determine if pralatrexate offered a beneficial second-line treatment option. […] All patients in the PROPEL study had received at least 1 prior therapy for PTCL. […] The efficacy in these patients was compared with the remainder of the patient population who had not received CHOP as their only therapy for PTCL prior to pralatrexate (n=94).
# [1] = 15 patients with CHOP as only prior therapy
# [2] = individual responders after first-line CHOP, central review, most values censored
# [3] = other patients in the study (n=94)
# [4] = second-line after CHOP, N=15, central review
# [5] = second-line after CHOP, N=15, investigator
# [6] = second-line after CHOP, N=15, investigator, Kaplan-Meier
# [7] = second-line after CHOP, N=15, investigator, Kaplan-Meier, listed as pralatrexate
structure (smiles),measurement,setting,value
"C#CCC(Cc1cnc2nc(N)nc(N)c2n1)c1ccc(C(=O)N[C@@H](CCC(=O)O)C(=O)O)cc1 (mixture of isomers) [Pralatrexate, (2S)-2-[[4-[(1RS)-1-[(2,4-diaminopteridin-6-yl)methyl]but-3-ynyl]benzoyl]amino]pentanedioic acid]",CR/CRu by investigators assessment,[1],33%
same,Complete responses [CR] by independent central review,[1],20%
same,ORR by investigator assessment,[1],40%
same,Overall response rate (ORR) by independent central review,[1],47%
same,Duration of Response,"individual responder after first-line CHOP, central review, censored (initiation of other subsequent therapy)",1 day^a
same,Duration of Response (months),[2],10.1^a months and 9.7^b months and 8.3^b months and 6.5^a months and 3.3^c months and 2.3^c months
same,PFS (months),[2],14.8^a months and 17.8^b months and 15.5^b months and 8.1 months and 4.6^c months and 3.4^c months and 4.6^a months
same,Duration of Response (months),"individual responders after first-line CHOP, central review, most values censored, listed as pralatrexate",2.3 months and 3.3 months
same,Patients still alive at the time of last contact,of the 15 patients,73%
same,Patients who proceeded to a stem cell transplant upon attaining a response to pralatrexate,of the 15 patients treated only with CHOP,Two
same,CR/CRu by investigators assessment,other patients (n=94),16%
same,Median PFS according to central review,other patients (n=94),3.1 months
same,Median PFS per investigator assessment,other patients (n=94),3.5 months
same,Median duration of response per investigator assessment,other patients (n=94),6.7 months
same,ORR by investigators assessment,other patients (n=94),39%
same,CR/CRu by independent central review,[3],10%
same,ORR by independent central review,[3],27%
same,12-month OS estimate,"second-line after CHOP, N=15",73%
same,"OS, Median, months (95% CI)","second-line after CHOP, N=15, NE = not able to estimate",not able to be estimated
same,"PFS, Range",[4],0.7-17.8^c months
same,Tumor Response: CRu,[4],0 (0) n (%)
same,Tumor Response: Not evaluable,[4],0 (0) n (%)
same,Tumor Response: ORR (CR + CRu + PR),[4],7 (47) n (%)
same,Tumor response: CR,[4],3 (20) n (%)
same,Tumor response: PD,[4],4 (27) n (%)
same,Tumor response: PR,[4],4 (27) n (%)
same,Tumor response: SD,[4],4 (27) n (%)
same,"PFS, Median, months (95% CI)","second-line after CHOP, N=15, central review, Kaplan-Meier","8.1 (4.6, NE) months"
same,"PFS, Median, months (95% CI)","second-line after CHOP, N=15, central review, Kaplan-Meier, listed as pralatrexate",8.1 months
same,"Duration of response, Median, months (95% CI)","second-line after CHOP, N=15, central review, NE = not able to estimate, insufficient PD events",not reached; also recorded: not yet estimable
same,Tumor Response: CRu,[5],1 (7) n (%)
same,Tumor Response: Not evaluable,[5],1 (7)^a n (%)
same,Tumor Response: ORR (CR + CRu + PR),[5],6 (40) n (%)
same,Tumor response: CR,[5],4 (27) n (%)
same,Tumor response: PD,[5],4 (27) n (%)
same,Tumor response: PR,[5],1 (7) n (%)
same,Tumor response: SD,[5],4 (27) n (%)
same,"Duration of response, Median, months (95% CI)",[6],"12.5 (10.8, NE) months"
same,"PFS, Median, months (95% CI)",[6],"7.4 (2.3, 15.0) months"
same,"Duration of response, Median, months (95% CI)",[7],12.5 months
same,"PFS, Median, months (95% CI)",[7],7.4 months
same,"OS, Range","second-line after CHOP, N=15, survival follow-up ended at 2 years",1.5-24.0^d months
same,Current disease-free period (duration of response to pralatrexate + time since stem cell transplant),the 2 patients who proceeded to stem cell transplant,20.9 months and 27.2 months and 20.1 months and 21.7 months
